Measured values from PubChem BioAssay AID256 (DTP/NCI, 2004).
“And” between values parts separate entries of the source, which are not always exact repeats. Equal entries are not always repeated. Toxic doses and inconclusive results are not listed. How the source made its calls: active means survival T/C of 150% or more; inactive means T/C below 125% in these data.

System: CD2F1 mice, L1210 leukemia ip, survival T/C
Experiment: NCI In Vivo Anticancer Drug Screen. Data for tumor model L1210 Leukemia (intraperitoneal) in CD2F1 (CDF1) mice
Conditions: endpoint: mean survival time, higher = longer survival
How it was run: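 Tumor-bearing mice (transplanted tumor) were split into treated and vehicle control groups, and the measured endpoint of each treated group was divided by that of its vehicle controls.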

[1] = dose: 100.0 mg/kg/injection, schedule: Q04DX003 (ip), vehicle: saline with Tween-80
[2] = dose: 200.0 mg/kg/injection, schedule: Q04DX003 (ip), vehicle: saline with Tween-80
[3] = dose: 400.0 mg/kg/injection, schedule: Q04DX003 (ip), vehicle: saline with Tween-80
[4] = dose: 100.0 mg/kg/injection, schedule: Q04DX002 (ip), vehicle: saline with Tween-80
[5] = dose: 200.0 mg/kg/injection, schedule: Q04DX002 (ip), vehicle: saline with Tween-80
[6] = dose: 400.0 mg/kg/injection, schedule: Q04DX002 (ip), vehicle: saline with Tween-80
[7] = dose: 100.0 mg/kg/injection, schedule: Q01DX009 (ip), vehicle: saline with Tween-80
[8] = dose: 200.0 mg/kg/injection, schedule: Q01DX009 (ip), vehicle: saline with Tween-80

Measured: T/C

CC(=O)N(C)NC(=O)c1ccccn1
inactive: dose: 50.0 mg/kg/injection, schedule: Q01DX001 (ip), vehicle: water 106 % of control | dose: 100.0 mg/kg/injection, schedule: Q01DX001 (ip), vehicle: water 103 % of control | dose: 200.0 mg/kg/injection, schedule: Q01DX001 (ip), vehicle: water 102 % of control | dose: 400.0 mg/kg/injection, schedule: Q01DX001 (ip), vehicle: water 103 % of control

CCOc1ccc2c(c1)C(C)=CC(C)(C)N2
inactive: [1] 95 % of control | [2] 104 % of control | [3] 91 % of control

CC(C)(C)C(=O)CC(=O)C(C)(C)C.CC(C)(C)C(=O)CC(=O)C(C)(C)C.CC(C)(C)C(=O)CC(=O)C(C)(C)C.[La]
inactive: [1] 94 % of control | [2] 101 % of control | [3] 97 % of control

NC(=O)C(N)CCO (stereo not drawn)
inactive: dose: 75.0 mg/kg/injection, schedule: Q01DX009 (ip), vehicle: saline 92 % of control | dose: 75.0 mg/kg/injection, schedule: Q04DX003 (ip), vehicle: saline 97 % of control | dose: 150.0 mg/kg/injection, schedule: Q01DX009 (ip), vehicle: saline 102 % of control | dose: 150.0 mg/kg/injection, schedule: Q04DX003 (ip), vehicle: saline 95 % of control | dose: 300.0 mg/kg/injection, schedule: Q01DX009 (ip), vehicle: saline 97 % of control | dose: 300.0 mg/kg/injection, schedule: Q04DX003 (ip), vehicle: saline 95 % of control

COC1C(O)CC(OC2CC(Oc3cc4cc5c(c(O)c4c(O)c3C)C(=O)[C@@H](OC3CC(OC4CC(OC6CC(C)(O)C(OC(C)=O)C(C)O6)C(O)C(C)O4)C(O)C(C)O3)[C@H]([C@H](OC)C(=O)[C@@H](O)[C@@H](C)O)C5)OC(C)C2OC(C)=O)OC1C (stereo partly drawn)
inactive: dose: 62.5 micrograms/kg/injection, schedule: Q01DX009 (ip), vehicle: saline 120 % of control | dose: 250.0 micrograms/kg/injection, schedule: Q01DX009 (ip), vehicle: saline 92 % of control

Nc1cccc(OCCOc2ccccc2[N+](=O)[O-])c1
inactive: dose: 100.0 mg/kg/injection, schedule: Q01DX001 (ip), vehicle: Klucel (hydroxypropylcellulose) (HPC) 93 % of control | dose: 200.0 mg/kg/injection, schedule: Q01DX001 (ip), vehicle: Klucel (hydroxypropylcellulose) (HPC) 90 % of control | dose: 400.0 mg/kg/injection, schedule: Q01DX001 (ip), vehicle: Klucel (hydroxypropylcellulose) (HPC) 90 % of control

Cn1c(=O)[nH]c(=O)c2cc(Cl)ccc21
inactive: [4] 101 % of control | [5] 106 % of control | [6] 121 % of control

O=C(COc1ccc(F)cc1)OCCOC(=O)COc1ccc(F)cc1
inactive: [4] 100 % of control | [5] 95 % of control

CC(=O)OC1CCC2(C)C3CCC4(C)C(O)CCC4C3CC(O)C2(O)C1 (stereo not drawn)
inactive: [1] 90 % of control | [2] 87 % of control | [3] 91 % of control

CSC(I)(N(C)C)N(C)C
inactive: dose: 75.0 mg/kg/injection, schedule: Q01DX001 (ip), vehicle: saline 98 % of control | dose: 150.0 mg/kg/injection, schedule: Q01DX001 (ip), vehicle: saline 101 % of control | dose: 300.0 mg/kg/injection, schedule: Q01DX001 (ip), vehicle: saline 98 % of control

O=P(O)(O)OCC1OC(n2cnc3c(NCc4ccccc4)ncnc32)C(O)C1O (stereo not drawn)
inactive: dose: 12.5 mg/kg/injection, schedule: Q01DX005 (ip), vehicle: other 104 % of control | dose: 25.0 mg/kg/injection, schedule: Q01DX005 (ip), vehicle: other 100 % of control | dose: 50.0 mg/kg/injection, schedule: Q01DX005 (ip), vehicle: other 104 % of control | dose: 100.0 mg/kg/injection, schedule: Q01DX005 (ip), vehicle: other 117 % of control

COC(=O)C1=CNC=C(C(=O)OC)C1c1ccccc1Cl
inactive: [1] 95 % of control | [2] 97 % of control | [3] 89 % of control

CC12CCCCC1CCC(Br)C2=O (stereo not drawn)
inactive: [1] 102 % of control | [2] 100 % of control | [3] 102 % of control

O=C1c2ccccc2C(=O)c2c1cccc2S(=O)(=O)O
inactive: dose: 200.0 mg/kg/injection, schedule: Q01DX001 (ip), vehicle: saline with Tween-80 97 % of control

C[SeH]C.C[SeH]C.[Cl][Pt][Cl]
inactive: dose: 0.94 mg/kg/injection, schedule: Q04DX003 (ip), vehicle: saline 100 % of control | dose: 1.88 mg/kg/injection, schedule: Q04DX003 (ip), vehicle: saline 97 % of control | dose: 3.75 mg/kg/injection, schedule: Q04DX003 (ip), vehicle: saline 97 % of control | dose: 7.5 mg/kg/injection, schedule: Q04DX003 (ip), vehicle: saline 100 % of control | dose: 15.0 mg/kg/injection, schedule: Q04DX003 (ip), vehicle: saline 100 % of control | dose: 30.0 mg/kg/injection, schedule: Q04DX003 (ip), vehicle: saline 105 % of control

CCc1ccc(-n2cnc3c(=O)[nH]c(N)nc32)cc1
inactive: dose: 100.0 mg/kg/injection, schedule: Q01DX001 (ip), vehicle: saline with Tween-80 87 % of control | dose: 400.0 mg/kg/injection, schedule: Q01DX001 (ip), vehicle: saline with Tween-80 93 % of control

CCOC(=O)c1ccc2c(c1)Cc1cc([N+](=O)[O-])ccc1-2
inactive: dose: 100.0 mg/kg/injection, schedule: Q01DX001 (ip), vehicle: carboxymethylcellulose (CMC) 98 % of control | dose: 200.0 mg/kg/injection, schedule: Q01DX001 (ip), vehicle: carboxymethylcellulose (CMC) 95 % of control | dose: 400.0 mg/kg/injection, schedule: Q01DX001 (ip), vehicle: carboxymethylcellulose (CMC) 95 % of control

CC1CN1C(=O)OCCOC(=O)N1CC1C (stereo not drawn)
inactive: dose: 200.0 mg/kg/injection, schedule: Q01DX Z (ip), vehicle: saline 120 % of control | dose: 300.0 mg/kg/injection, schedule: Q01DX Z (ip), vehicle: saline 117 % of control | dose: 450.0 mg/kg/injection, schedule: Q01DX Z (ip), vehicle: saline 117 % of control

CCCCCCCC/C=C\CCCCCCCCNC(C)=O
inactive: [7] 89 % of control | [8] 89 % of control

COc1ccc2c(c1)N(CCC1CCCCN1C)c1ccccc1S2 (stereo not drawn)
inactive: dose: 6.25 mg/kg/injection, schedule: Q04DX003 (ip), vehicle: saline 93 % of control and 100 % of control | dose: 12.5 mg/kg/injection, schedule: Q04DX003 (ip), vehicle: Klucel (hydroxypropylcellulose) (HPC) 97 % of control | dose: 12.5 mg/kg/injection, schedule: Q04DX003 (ip), vehicle: saline 98 % of control and 100 % of control | dose: 25.0 mg/kg/injection, schedule: Q04DX003 (ip), vehicle: Klucel (hydroxypropylcellulose) (HPC) 95 % of control | dose: 25.0 mg/kg/injection, schedule: Q04DX003 (ip), vehicle: saline 101 % of control and 102 % of control | dose: 50.0 mg/kg/injection, schedule: Q04DX003 (ip), vehicle: Klucel (hydroxypropylcellulose) (HPC) 97 % of control | dose: 50.0 mg/kg/injection, schedule: Q04DX003 (ip), vehicle: saline 106 % of control | dose: 100.0 mg/kg/injection, schedule: Q04DX003 (ip), vehicle: Klucel (hydroxypropylcellulose) (HPC) 103 % of control

N/C(CCSc1ccccc1N=Cc1ccccc1O)=N/O
inactive: dose: 3.13 mg/kg/injection, schedule: Q01DX009 (ip), vehicle: olive oil, sesame oil, peanut oil 95 % of control | dose: 6.25 mg/kg/injection, schedule: Q01DX009 (ip), vehicle: olive oil, sesame oil, peanut oil 94 % of control | dose: 12.5 mg/kg/injection, schedule: Q01DX009 (ip), vehicle: olive oil, sesame oil, peanut oil 98 % of control | dose: 25.0 mg/kg/injection, schedule: Q01DX009 (ip), vehicle: olive oil, sesame oil, peanut oil 100 % of control | dose: 50.0 mg/kg/injection, schedule: Q01DX009 (ip), vehicle: olive oil, sesame oil, peanut oil 100 % of control

COc1cc(Cl)ccc1NC(=O)OCCOc1c(C(C)C)cccc1C(C)C
inactive: dose: 50.0 mg/kg/injection, schedule: Q01DX009 (ip), vehicle: saline with Tween-80 101 % of control | [7] 101 % of control | [8] 89 % of control

COC(CCl)(CCl)OC
inactive: dose: 10.0 mg/kg/injection, schedule: Q01DX009 (ip), vehicle: saline with Tween-80 87 % of control | dose: 20.0 mg/kg/injection, schedule: Q01DX009 (ip), vehicle: saline with Tween-80 90 % of control

Nc1ccnc(SCCCOc2ccccc2)n1
inactive: [4] 104 % of control | [5] 101 % of control | [6] 97 % of control

Cc1ccccc1N=C(NO)c1ccccc1
inactive: dose: 50.0 mg/kg/injection, schedule: Q01DX009 (ip), vehicle: saline 98 % of control | dose: 100.0 mg/kg/injection, schedule: Q01DX009 (ip), vehicle: saline 98 % of control | dose: 200.0 mg/kg/injection, schedule: Q01DX009 (ip), vehicle: saline 95 % of control
